What was measured:
[1] = molecular target: xanthine oxidase-hypoxanthine (XO/HX) reaction; test: Inhibitory effect on luminol-induced chemiluminescence (CL) which results from xanthine oxidase-hypoxanthine (XO/HX) reaction; assay type: biochemical, cow; conditions: 37° C, peak intensity, sample in dimethylsulfoxide
Procedure: Inhibitory effect on luminol-induced chemiluminescence (CL) which results from xanthine oxidase-hypoxanthine (XO/HX) reaction.
Four hundred and fifty micro liter of […] hypoxanthine (Kohjin Co., Ltd.) in 0.lM phosphate buffer solution (PBS)(pH 7.6), 10 μl of 1 mg/ml luminol (Nakarai Chemicals, Ltd.) in PBS and 10 μl of sample dissolved in dimethylsulfoxide were mixed in a round-bottomed vial, and preincubated for 3 min. at 37° C. And then, 50 μl of 0.05 unit/ml xanthine oxidase in 0.lM phosphate buffer solution (from cow milk, Boehringer Mannhein GmbH) was added. For the measurement of CL, a Biolumat (LB 9505, Berthold, FRG) was used. The vial containing XO/HX reaction mixture was placed into a Biolumat chamber at 37° C, and CL was continuously monitored using a computer (PC 9801 VM, NEC). Peak intensity was used as an index of CL.

Solubility = assay type: physicochemical
rat brain homogenate = test: Inhibitory effect on iron-dependent lipid peroxidation of rat brain homogenate (TBA-reactive products); assay type: biochemical, rat (male Sprague-Dawley); conditions: 37° C, 20 min
Procedure: Inhibitory effect on iron-dependent lipid peroxidation of rat brain homogenate
Method : (reported by J. M. Braughler et al.^1))
After decapitation,the brain was quickly removed (minus cerebellum), weighed, and placed in ice-cold Krebs buffer solution. The brain was homogenized in a ratio of 1 g of wet tissue to 9 ml of buffer in a teflon homogenizer. Homogenates were used immediately in lipid p-roxidation assays as follows.
* HEPES : N-(2-hydroxyethyl)piperazine-N'-2-ethanesulfonic acid (Sigma)
To the reaction mixture consisted of 50 μl of 6.25 mg/ml brain homogenate in Krebs buffer solution, 110 μl of Krebs buffer solution, 20 μl of sample dissolved in methanol was added 20 μl of aqueous 2 mM Fe(NH4)2 (SO4)2 solution, which was prepared freshly, at 37° C. After 20 min, the reaction was terminated by the addition of 30 μl of 35% perchloric acid. Then 20 μl of 500 μM desferoxamine mesylate (Sigma) in Krebs buffer solution was added to the reaction mixture to prevent further lipid peroxydation. After centrifugation at 2000 xg, 10 min, 4° C., 50 μl of supernatant was subsequently assayed for lipid peroxide.
Lipid peroxide was assessed as TBA-reactive product as described by H. Ohkawa et al ^2). The reaction mixture consisted of 50 μl of above-mentioned supernatant, 100 μl of aqueous 8.1% sodium dodecyl sulfate (SDS) solution, 750 μl of aqueous 20% acetic acid solution which was adjusted with aqueous lN NaOH solution to pH 3.5, 750 μl of aqueous 0.67% 2-thiobarbituric acid solution and 350 μl of distilled water was boiled for 1 hour and cooled in ice bath rapidly. 0.5 ml of distilled water and 2.5 ml of the mixture of n-butanol and pyridine (15:1, V/V) were added, and the mixture was shaken vigorously. After centrifugation at 1250 xg for 10 min, the fluorescence (excitation; 515 nm, emission; […]) of the organic layer was determined.

IC50 [1] [nM]	Solubility (Solubility; chloroform, diethyl ether, ethyl acetate, acetone, methanol and ethanol)	Solubility (Solubility; hexane, water)	Structure (SMILES)	Inhibition of TBA-reactive products generation (rat brain homogenate; concentration 10^-4 M) [%]	Inhibition of TBA-reactive products generation (rat brain homogenate; concentration 10^-5 M) [%]	Inhibition of TBA-reactive products generation (rat brain homogenate; concentration 10^-6 M) [%]	Inhibition of TBA-reactive products generation (rat brain homogenate; concentration 10^-7 M) [%]
380			COc1cc2c(cc1O)CC(C(C)(C)O)O2 (racemic) [Example 1, 2,3-dihydro-2-(1-hydroxy-1-methylethyl)-6-methoxy-5-benzofuranol]				
4.7			COc1cc2oc(C(C)C)cc2cc1O [Example 2, 5-hydroxy-6-methoxy-2-(1-methylethyl)benzofuran]				
320	Soluble	Sparingly Soluble	COc1cc2c(cc1O)CC(C(C)(C)O)O2 (stereo not shown) [Example 3, 2,3-Dihydro-2-(1-hydroxy-1-methylethyl)-6-methoxy-5-benzofuranol]	95.5	45.4	20.0	11.4
			Cc1c(C)c2c(c(C)c1O)CCC(C)(CCCC(C)CCCC(C)CCCC(C)C)O2 (stereo not drawn) [α-Tocopherol, reference compound]	65.3	25.7	9.3	0

— patent publication US5043354A, “Pharmaceutically useful 5-hydroxy-2,3-dihydro-benzofurans and 5-hydroxy-benzofurans” (Fujisawa Pharmaceutical Co., Ltd., priority 1989, dated 1991)
